Reference: US6894021B2, “Method for identifying and using A2B adenosine receptor antagonists to mediate mammalian cell proliferation” (CV Therapeutics, Inc., priority 2000, dated 2005)
“Also recorded” adds a separate entry of the source.

What was measured:
Format in all cases: cell-based
[1] = system: human retinal endothelial cells (HREC); assay: Endothelial cell chemotaxis / chemokinesis in blind-well (Boyden) chambers; settings: for Effect on NECA-stimulated HREC migration (chemotaxis): antagonist 10 μmol/L co-added with NECA 10 μmol/L
Description: (§1) Primary cultures of HREC were prepared and maintained as previously described and cells in passage 3-6 were used for these studies. […] To maintain purity of HREC, several precautionary steps were taken. […] In addition, cultures of HREC were exposed to trypsin for only 45 sec prior to passage. Endothelial cells float off during this short trypsin treatment while pericytes remain attached to the substrate.
Endothelial cell chemotaxis was measured in blind-well chemotaxis chambers (Neuroprobe, Inc, Bethesda, Md.) as previously described. Briefly a single cell suspension of endothelial cells ([…] cells/well) was prepared and treated with ADA (1 U/mL). Thirty microliters of this suspension was placed in each of 48 lower wells of the blind-well apparatus. The wells were overlaid with a porous (5 μm diameter pore) polyvinyl—and pyrrolidone-free polycarbonate membrane (Nucleopore, Pleasanton, Calif.), coated with 0.1% dermal collagen. The cells were allowed to attach to the membrane by inverting the chamber of 2 h. The chambers were then placed upright and exposed to NECA alone (10 μmol/L), NECA combined with 3-N-propylxanthine (10 μmol/L), JW-V1-08 (10 μmol/L) or the non-selective AdoR antagonist xanthine amine congener (XAC, 10 μmol/L) in a 50 μL volume. After incubation for 12 h, the membrane was recovered and scraped free of cells on the attachment side. The remaining cells, those that had migrated through the pores, were fixed in methanol, is stained with modified Wright's stain and then counter-stained with haematoxylin and eosin. The positive control was 10% fetal bovine serum and the negative control was 1% ablumin. Chemokinesis, the non-oriented increase in cell migration in response to a stimulus, was measured by adding equal concentration of NECA or NECA plus one of the antagonists to both lower and upper chambers. Treatment conditions were examined in triplicate in three separate experiments.

[2] = system: human retinal endothelial cells (HREC); assay: Matrigel assay of endothelial tube formation; settings: 48 h; for Effect on NECA-induced tube formation on Matrigel (photomicrographs): antagonist 10 μmol/L with NECA 10 μmol/L, FIG. 2C, 2D; for Total tube length in the presence of NECA: antagonist added to NECA, NECA alone 74.2±2.4
Description: as §1
Endothelial tube formation was assessed on Matrigel. Briefly, Matrigel was thawed and kept at 4° C. Multi-well plates and pipette tips were chilled to −20° C. and Matrigel (125 μL) was added to each well of a 48-well plate and allowed to harden for a minimum of 1 h at 37° C. HREC were dissociated enzymatically (2 min at 37° C. in 0.25% Trypsin-EDTA), centrifuged (300×g, 5 min) and re-suspended in serum-free media. Test agents (100 μL) were prepared at 2× final concentration and 100 μL were added to wells. HREC (3×10 in 100 μL per well) were then added and plates were incubated at 37° C. Wells were photographed 48 h after plating. Identical fields in each well were photographed to minimize the possible variation due to variable cell density caused by the settling of cells. […] All conditions were tested in duplicate wells in three separate experiments using cells from different donors.

[3] = system: human retinal endothelial cells (HREC); assay: HREC proliferation assay (cell counting, Coulter Counter); settings: for Effect on NECA-induced HREC proliferation: antagonist 10 μmol/L with NECA 10 μmol/L, FIG. 1A
Description: as §1
HREC were seeded at 10 cells/cm in 24 well plates and allowed to adhere overnight. Cells were washed in Hank's balanced salt solution and the medium was replaced with serum—and growth supplement-free medium (SFM) for 24 hr to induce cell-cycle arrest. Cells were washed again and pre-treated with 1 U/mL adenosine deaminase (ADA) for 30 min. […] Controls were HREC exposed to SFM or normal growth medium. For the next three days at 24-hour intervals replicate wells were treated with trypsin and the cells were collected and counted using a Coulter Counter. Each condition was examined in triplicate in three separate experiments using cells from different donors for each experiment.

What does the source list for `CCCn1c(=O)[nH]c(=O)c2[nH]cnc21` [3-N-propylxanthine]?
Effect on NECA-stimulated HREC migration (chemotaxis) ([1]; 12 h, FIG. 1B): antagonized the stimulatory effect of NECA on chemotaxis; Effect on NECA-induced tube formation on Matrigel (photomicrographs) [2]: diminished NECA-induced tube formation; also recorded: inhibited tube formation, resulting in fewer tubes of shorter length; Total tube length in the presence of NECA ([2]; p<0.01): 53.7±0.9 pixel; Effect on NECA-induced HREC proliferation [3]: completely blocked; also recorded: completely block the proliferative effect of NECA

With `CCNC(=O)[C@H]1O[C@@H](n2cnc3c(N)ncnc32)[C@H](O)[C@@H]1O` [NECA, 5′-N-ethylcarboxamido-adenosine] as the compound, how does the “HREC chemotaxis / migration” value ([1]; NECA alone versus unstimulated cells, 12 h, FIG. 1B) read?
Its value is “concentration-dependent increase in HREC migration; also recorded: increased migration in a concentration-dependent manner”.

What about the “Chemokinesis (non-oriented increase in cell migration)” value ([1]; equal concentration in lower and upper chambers) of the same compound?
The value was “Neither NECA alone nor NECA in combination with the AdoR antagonists induced chemokinesis”.

What about the “Endothelial cell tube formation on Matrigel (photomicrographs)” value ([2]; NECA 10 μmol/L alone, FIG. 2B) of the same compound?
The value was “supported extensive tube formation”.

And the “Increase of tube length over untreated cells” value ([2]; NECA alone)?
Its value is “more than 2 fold”.

What about the Total tube length ([2]; NECA alone, untreated cells 35.7±1.6, p<0.01) of the same compound?
Its Total tube length is 74.2±2.4 pixel.

What about the “HREC proliferation by cell counts, as density relative to cells exposed to normal growth medium” value ([3]; NECA 10 μmol/L, 3 days, ADA-pretreated serum-starved HREC) of the same compound?
Its value is “about 80%”.

With `CC(C)Cn1c(=O)[nH]c(=O)c2[nH]c(N3CCCC3)nc21` [JW-V1-08, 3-isobutyl-8-pyrrolidinoxanthine] as the compound, how does the “Effect on NECA-stimulated HREC migration (chemotaxis)” value ([1]; 12 h, FIG. 1B) read?
The value was “antagonized the stimulatory effect of NECA on chemotaxis”.

What about the “Effect on NECA-induced tube formation on Matrigel (photomicrographs)” value [2] of the same compound?
Its value is “diminished NECA-induced tube formation; also recorded: inhibited”.

And the “Total tube length in the presence of NECA” value ([2]; p<0.01)?
The value was 66±1.2 pixel.

What about the “Effect on NECA-induced HREC proliferation” value [3] of the same compound?
The value was “completely blocked; also recorded: completely block the proliferative effect of NECA”.

`CCCn1c(=O)c2[nH]c(-c3ccc(OCC(=O)NCCN)cc3)nc2n(CCC)c1=O` [XAC, xanthine amine congener] was tested. Which “Effect on NECA-stimulated HREC migration (chemotaxis)” value ([1]; 12 h, FIG. 1B) did it give?
Its value is “abolished NECA-stimulated migration of HREC”.
